The values that follow come from PubChem BioAssay (NCI).

Among the test systems are DLD-1 colon; DMS 114 small cell lung; DMS 273 small cell lung; KM20L2 colon; LXFL 529 NSCLC; M19-MEL melanoma; RXF-631 renal; XF 498 CNS; P388 leukemia; P388/ADR leukemia; SN12K1 renal; MDA-N.
Assay in all cases: NCI tumour cell line growth inhibition, 48 h

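These data come from cells grown in 96-well plates and exposed to compound for 48 hours at five concentrations. At the TGI there is no net growth.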

`COc1ccc2nc(NC(=O)C(=O)C(C#N)c3ccc(Cl)c(Cl)c3)sc2c1` (stereo unspecified): the TGI with DLD-1 colon, in the experiment on DMS 114 small cell lung, in the experiment on DMS 273 small cell lung, in the experiment on KM20L2 colon, in the experiment with LXFL 529 NSCLC and in the experiment on M19-MEL melanoma was greater than 100 µM throughout. Also, the TGI with RXF-631 renal and in the experiment on XF 498 CNS was greater than 100 µM throughout.
In the case of `O=C(O)CCSC(=O)Nc1ccc(N=Nc2ccccc2)cc1`, the TGI in the experiment with DLD-1 colon, in the experiment on DMS 114 small cell lung, in the experiment on DMS 273 small cell lung, in the experiment on KM20L2 colon, with LXFL 529 NSCLC and in the experiment with RXF-631 renal was greater than 100 µM each time. The compound also returned a TGI in the experiment with XF 498 CNS greater than 100 µM.
With `O=C(O)c1ccccc1NC(=O)C1CCCCC1`, the TGI with DLD-1 colon, with DMS 114 small cell lung, with DMS 273 small cell lung, in the experiment on KM20L2 colon, in the experiment with LXFL 529 NSCLC and in the experiment on M19-MEL melanoma was greater than 100 µM in each case. In addition, the TGI in the experiment on RXF-631 renal and in the experiment on XF 498 CNS was greater than 100 µM each time.
Take `O=C(O)/C=C/C(=O)N1C/C(=C\c2ccccc2)C(=O)/C(=C/c2ccccc2)C1`: the TGI in the experiment with DLD-1 colon amounted to 12.2 µM; in the experiment on DMS 114 small cell lung it was 8.78 µM; in the experiment with DMS 273 small cell lung, 20 µM; with KM20L2 colon, 17.6 µM; in the experiment on LXFL 529 NSCLC, 3.72 µM; with M19-MEL melanoma, 9.41 µM. The TGI in the experiment with P388 leukemia is 41.6 µM; in the experiment with P388/ADR leukemia, greater than 70.7 µM; in the experiment with SN12K1 renal, 3.57 µM; with XF 498 CNS, 15.8 µM.
For the compound `O=C(NO)c1ccc(O)c(O)c1`, the TGI was greater than 100 µM in the experiment with DLD-1 colon; greater than 100 µM with DMS 114 small cell lung; 77.8 µM with DMS 273 small cell lung; greater than 100 µM in the experiment on KM20L2 colon; greater than 100 µM in the experiment with LXFL 529 NSCLC; greater than 100 µM in the experiment on M19-MEL melanoma. Moreover, the TGI in the experiment with RXF-631 renal and in the experiment on XF 498 CNS was greater than 100 µM in each case.
Turning to `COC(=O)CCC(=O)NC1C2CC3CC(C2)CC1C3` (stereo unspecified), the TGI with DLD-1 colon, in the experiment on DMS 114 small cell lung, in the experiment with DMS 273 small cell lung, in the experiment on KM20L2 colon, in the experiment on LXFL 529 NSCLC and with M19-MEL melanoma was greater than 100 µM in each case. In addition, the TGI with RXF-631 renal and with XF 498 CNS was greater than 100 µM throughout.
For `O=[N+]([O-])c1ccc(Cl)cc1C1SCc2nc3ccccc3n21` (stereo unspecified), the TGI in the experiment with DLD-1 colon, with DMS 114 small cell lung, in the experiment on DMS 273 small cell lung, in the experiment on KM20L2 colon, in the experiment with LXFL 529 NSCLC and in the experiment on M19-MEL melanoma was greater than 100 µM each time. The TGI in the experiment on RXF-631 renal and in the experiment on XF 498 CNS was greater than 100 µM throughout.
Take `COc1ccc2c(c1OC)C(=O)c1cnccc1C2=O`: the TGI with DLD-1 colon, in the experiment with DMS 114 small cell lung, in the experiment with DMS 273 small cell lung, in the experiment with KM20L2 colon, in the experiment with LXFL 529 NSCLC and in the experiment on M19-MEL melanoma was greater than 100 µM in each case. Further, the TGI with RXF-631 renal and with XF 498 CNS was greater than 100 µM throughout.
With `O=C1NC(=O)C2C1N(Cc1ccccc1)C(=O)N2Cc1ccccc1` (stereo unspecified), the TGI in the experiment on DLD-1 colon, in the experiment with DMS 114 small cell lung, in the experiment with KM20L2 colon, with LXFL 529 NSCLC, in the experiment on M19-MEL melanoma and with RXF-631 renal was greater than 100 µM in each case. The compound also showed a TGI in the experiment on XF 498 CNS greater than 100 µM.
Regarding `CC(=O)Oc1ccc(C(c2ccc(OC(C)=O)cc2)c2ccccn2)cc1`, the TGI in the experiment on DLD-1 colon is greater than 100 µM; in the experiment with DMS 114 small cell lung, greater than 68.4 µM; in the experiment with DMS 273 small cell lung it was greater than 100 µM; with KM20L2 colon, greater than 100 µM; with LXFL 529 NSCLC, greater than 100 µM; in the experiment on M19-MEL melanoma, greater than 100 µM. Further, the TGI was greater than 100 µM in the experiment on MDA-N, greater than 100 µM in the experiment on RXF-631 renal and greater than 86.1 µM with XF 498 CNS.
